How the values were obtained:
[1] = Clearance in Sprague-Dawley rat at 10 mg/kg, po or 2 mg/kg, iv; type: ADME, organism-based; details: in vivo
[2] = Oral bioavailability in Sprague-Dawley rat at 10 mg/kg; type: ADME, organism-based; details: in vivo
B1 bradykinin receptor = biological target: T1, B1 bradykinin receptor (Homo sapiens, UniProt P46663); assay: Binding affinity to human bradykinin B1 receptor expressed in rat CNS
T1 sequence (P46663 whole entry): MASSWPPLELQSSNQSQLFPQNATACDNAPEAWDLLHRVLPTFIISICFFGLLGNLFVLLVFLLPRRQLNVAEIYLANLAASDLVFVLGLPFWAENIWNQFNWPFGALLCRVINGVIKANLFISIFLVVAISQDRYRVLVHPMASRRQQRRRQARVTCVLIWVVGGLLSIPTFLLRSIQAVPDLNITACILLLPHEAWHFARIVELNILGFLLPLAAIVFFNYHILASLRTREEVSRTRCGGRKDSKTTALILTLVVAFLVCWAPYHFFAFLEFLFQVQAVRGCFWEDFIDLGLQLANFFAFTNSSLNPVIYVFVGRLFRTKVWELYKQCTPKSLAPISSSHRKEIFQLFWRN

[3] = Apparent permeability by cell based assay; type: ADME; details: not told
[4] = Half life in Sprague-Dawley rat at 10 mg/kg, po or 2 mg/kg, iv; type: ADME, organism-based; details: in vivo
[5] = biological target: T2, PXR (Nuclear receptor subfamily 1 group I member 2) (Homo sapiens, UniProt O75469); assay: Reduction of PXR activation at 10 uM relative to rifampicin; parameters: scale not given: the % may be the effect or the level left; details: read-out: Activity
T2 sequence (O75469 whole entry): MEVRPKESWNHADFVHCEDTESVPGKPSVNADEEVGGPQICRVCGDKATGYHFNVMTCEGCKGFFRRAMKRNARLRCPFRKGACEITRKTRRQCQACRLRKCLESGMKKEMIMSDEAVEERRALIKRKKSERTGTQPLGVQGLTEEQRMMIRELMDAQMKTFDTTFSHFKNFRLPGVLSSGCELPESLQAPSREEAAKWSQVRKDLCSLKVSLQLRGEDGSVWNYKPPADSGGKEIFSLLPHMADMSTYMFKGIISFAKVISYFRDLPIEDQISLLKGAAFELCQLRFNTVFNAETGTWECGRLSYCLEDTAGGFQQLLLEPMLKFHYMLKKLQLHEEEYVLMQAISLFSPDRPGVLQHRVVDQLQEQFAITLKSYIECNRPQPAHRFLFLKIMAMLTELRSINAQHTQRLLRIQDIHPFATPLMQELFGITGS

[6] = Half life in Mongrel dog at 1 mg/kg, iv; type: ADME, organism-based, Canis lupus familiaris; parameters: dose 1 mg/kg, route intravenous; details: in vivo
[7] = Ratio of permeability from basolateral to apical over apical to basolateral side in P-gp expressing cells
[8] = Clearance in Mongrel dog at 1 mg/kg, iv; type: ADME, organism-based, Canis lupus familiaris; parameters: dose 1 mg/kg, route intravenous; details: in vivo
[9] = Ratio of drug level in brain to plasma in african green monkey; type: ADME, organism-based; details: chlorocebus aethiops
[10] = Half life in rhesus monkey at 3 mg/kg, po or 1 mg/kg, iv; type: ADME, organism-based, Macaca mulatta; details: in vivo
[11] = Clearance in rhesus monkey at 3 mg/kg, po or 1 mg/kg, iv; type: ADME, organism-based, Macaca mulatta; details: in vivo
[12] = Oral bioavailability in rhesus monkey at 3 mg/kg; type: ADME, organism-based, Macaca mulatta; details: in vivo
[13] = Oral bioavailability in Mongrel dog at 3 mg/kg; type: ADME, organism-based, Canis lupus familiaris; details: in vivo
[14] = biological target: T3, B1 bradykinin receptor (Homo sapiens) (UniProt P46663); assay: Ex vivo receptor occupancy at bradykinin B1 receptor
T3 sequence (whole entry): T1 sequence (P46663 whole entry)

Row | Structure (SMILES) | clearance [1] | bioavailability [2] | Ki (B1 bradykinin receptor) | Papp [3] | half-life [4] | activity at 10 µM [5] | half-life [6] | Ratio [7] | clearance [8] | Kp [9] | half-life [10] | clearance [11] | bioavailability [12] | bioavailability [13] | Occ90 [14]
1 | C[C@@H](NC(=O)C1(NC(=O)C(F)(F)F)CC1)c1ccc(-c2cc(Cl)cc(Cl)c2OC(CF)CF)cc1F | 1.6 mL/min/kg | 56% | 0.9 nM | 28 ×10⁻⁶ cm/s | 5 h | – | – | – | – | – | – | – | – | – | –
2 | CCOc1c(Cl)cc(Cl)cc1-c1ccc([C@@H](C)NC(=O)C2(NC(=O)C(F)(F)F)CC2)c(F)c1 | 11.5 mL/min/kg | 38% | 1.3 nM | 18 ×10⁻⁶ cm/s | 7.5 h | 62% | – | – | – | – | – | – | – | – | –
3 | C[C@@H](NC(=O)C1(NC(=O)c2ccon2)CC1)c1ncc(-c2cc(Cl)cc(Cl)c2OCC(F)F)cc1F | – | – | 1.2 nM | 35 ×10⁻⁶ cm/s | – | 23% | 18 h | 1.8 | 2 mL/min/kg | – | – | – | – | – | –
4 | CCOc1c(Cl)cccc1-c1ccc([C@@H](C)NC(=O)C2(NC(=O)C(F)(F)F)CC2)c(F)c1 | 16 mL/min/kg | 48% | 0.9 nM | 29 ×10⁻⁶ cm/s | 1.9 h | – | – | 1.9 | – | – | – | – | – | – | –
5 | CCOc1cc(C(=O)NC2(C(=O)N[C@H](C)c3ncc(-c4cc(Cl)cc(Cl)c4OCC(F)F)cc3F)CC2)on1 | – | – | 1.1 nM | 25 ×10⁻⁶ cm/s | – | 37% | 13.5 h | 2.1 | 3 mL/min/kg | – | – | – | – | – | –
6 | C[C@@H](NC(=O)C1(NC(=O)c2cc(C3CC3)on2)CC1)c1ncc(-c2cc(Cl)cc(Cl)c2OCC(F)F)cc1F | – | – | 2.6 nM | 18 ×10⁻⁶ cm/s | – | 58% | 6.9 h | 3.8 | 13 mL/min/kg | – | – | – | – | – | –
7 | COc1cc(C(=O)NC2(C(=O)N[C@H](C)c3ncc(-c4cc(Cl)cc(Cl)c4OCC(F)F)cc3F)CC2)on1 | 2.4 mL/min/kg | 44% | 0.5 nM | 28 ×10⁻⁶ cm/s | 4.5 h | 8% | 21 h | 2 | 1.2 mL/min/kg | 0.7 | 6.2 h | 1.6 mL/min/kg | 93% | 94% | 540 nM
8 | CCOc1c(Cl)cc(Cl)cc1-c1cnc([C@@H](C)NC(=O)C2(NC(=O)c3ccno3)CC2)c(F)c1 | 10 mL/min/kg | 7% | 0.6 nM | – | 1.9 h | 15% | 4.5 h | – | 7 mL/min/kg | 1.4 | 1.2 h | 15 mL/min/kg | 3% | 55% | 380 nM
9 | C[C@@H](NC(=O)C1(NC(=O)C(F)(F)F)CC1)c1ccc(-c2cc(Cl)cc(Cl)c2OCC(F)(F)F)cc1F | 1.1 mL/min/kg | 35% | 1.8 nM | 6.3 ×10⁻⁶ cm/s | 27 h | 45% | – | – | – | – | – | – | – | – | –
10 | CC(C)Oc1c(Cl)cc(Cl)cc1-c1ccc([C@@H](C)NC(=O)C2(NC(=O)C(F)(F)F)CC2)c(F)c1 | – | – | 2.3 nM | – | – | – | – | – | – | – | – | – | – | – | –
11 | C[C@@H](NC(=O)C1(NC(=O)C(F)(F)F)CC1)c1ncc(-c2cc(Cl)cc(Cl)c2OCC(F)F)cc1F | – | – | 1.5 nM | 23 ×10⁻⁶ cm/s | – | 99% | 21 h | – | 2.3 mL/min/kg | – | – | – | – | – | –
12 | C[C@@H](NC(=O)C1(NC(=O)C(F)(F)F)CC1)c1ccc(-c2cc(Cl)cc(Cl)c2OCC(F)F)cc1F | 5.8 mL/min/kg | – | 0.2 nM | 26 ×10⁻⁶ cm/s | 7.6 h | 95% | – | – | – | – | – | – | – | – | –
13 | COC(=O)c1c(Cl)cc(Cl)cc1-c1ccc([C@@H](C)NC(=O)C2(NC(=O)c3cc(OC)no3)CC2)c(F)c1 | – | – | 0.4 nM | – | – | 40% | – | 5.1 | – | – | – | – | – | – | –
14 | C[C@@H](NC(=O)C1(NC(=O)c2ccno2)CC1)c1ncc(-c2cc(Cl)cc(Cl)c2OCC(F)F)cc1F | – | – | 0.4 nM | 29 ×10⁻⁶ cm/s | – | 21% | 4 h | 3.9 | 5.9 mL/min/kg | – | – | – | – | – | –
15 | Cc1cc(C(=O)NC2(C(=O)N[C@H](C)c3ncc(-c4cc(Cl)cc(Cl)c4OCC(F)F)cc3F)CC2)no1 | 5.1 mL/min/kg | 30% | 1.4 nM | 23 ×10⁻⁶ cm/s | 3 h | 28% | 9.4 h | 1.5 | 4.5 mL/min/kg | 0.9 | 1.6 h | 9.1 mL/min/kg | 25% | 21% | 940 nM
16 | CCc1cc(C(=O)NC2(C(=O)N[C@H](C)c3ncc(-c4cc(Cl)cc(Cl)c4OCC(F)F)cc3F)CC2)no1 | – | – | 1.9 nM | 25 ×10⁻⁶ cm/s | – | 37% | 4.5 h | 2 | 14 mL/min/kg | – | – | – | – | – | –
17 | C[C@@H](NC(=O)C1(NC(=O)c2cc(Cl)no2)CC1)c1ncc(-c2cc(Cl)cc(Cl)c2OCC(F)F)cc1F | – | – | 0.2 nM | 26 ×10⁻⁶ cm/s | – | 68% | 34 h | 1.6 | 2.6 mL/min/kg | – | – | – | – | – | –
18 | COC(=O)c1c(Cl)cc(Cl)cc1-c1ccc([C@@H](C)NC(=O)C2(NC(=O)C(F)(F)F)CC2)c(F)c1 | – | – | 0.4 nM | – | – | 77% | 1.6 h | – | 20 mL/min/kg | – | – | 11.2 mL/min/kg | – | – | –
19 | CCOc1c(Cl)cc(Cl)cc1-c1cnc([C@@H](C)NC(=O)C2(NC(=O)C(F)(F)F)CC2)c(F)c1 | 11.3 mL/min/kg | 8% | 1.5 nM | – | 5 h | 89% | – | – | – | 2.2 | – | – | – | – | 1450 nM
